Experimental data taken from the supplement of paper PMC4862054.

Experiments:
Details in all cases: incubation time: 72 h
[1] = system: CAL-120; assay: normalised response (% of control), CellTox Green; higher = less cell death (100 = DMSO, 0 = benzethonium chloride kill control)
Method in brief: (§1)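 The table gives the normalised signal for a single concentration in each entry. Breast cancer cell lines were seeded (20 µl suspension) into 384-well plates holding compound at 5 concentrations in 10-fold steps over a compound-specific 10,000-fold range and incubated 72 h, then read for CellTox Green fluorescence (485/520 nm) and CellTiter-Glo luminescence. Normalisation on each plate used 0.1 % DMSO (100) and a positive kill control (0).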

[2] = system: HDQ-P1; assay: as above
Method in brief: as §1

[3] = system: HCC1937; assay: as above
Method in brief: as §1

[4] = system: DU-4475; assay: as above
Method in brief: as §1

[5] = system: Hs578T; assay: as above
Method in brief: as §1

[6] = system: MFM-223; assay: as above
Method in brief: as §1

[7] = system: CAL-51; assay: as above
Method in brief: as §1

[8] = system: CAL-85-1; assay: as above
Method in brief: as §1

[9] = system: MCF-10A; assay: as above
Method in brief: as §1

[10] = system: MDA-MB-453; assay: as above
Method in brief: as §1

[11] = system: CAL-148; assay: as above
Method in brief: as §1

[12] = system: HCC1599; assay: as above
Method in brief: as §1

[13] = system: MDA-MB-231; assay: as above
Method in brief: as §1

[14] = system: MDA-MB-436; assay: as above
Method in brief: as §1

[15] = system: HCC1143; assay: as above
Method in brief: as §1

[16] = system: BT-474; assay: as above
Method in brief: as §1

[17] = system: MDA-MB-468; assay: as above
Method in brief: as §1

[18] = system: BT-549; assay: as above
Method in brief: as §1

[19] = system: CAL-120; assay: normalised response (% of control), CellTiter-Glo; higher = more viable cells (100 = DMSO, 0 = benzethonium chloride kill control)
Method in brief: as §1

[20] = system: HDQ-P1; assay: as above
Method in brief: as §1

[21] = system: HCC1937; assay: as above
Method in brief: as §1

[22] = system: DU-4475; assay: as above
Method in brief: as §1

[23] = system: Hs578T; assay: as above
Method in brief: as §1

[24] = system: MFM-223; assay: as above
Method in brief: as §1

[25] = system: CAL-51; assay: as above
Method in brief: as §1

[26] = system: CAL-85-1; assay: as above
Method in brief: as §1

[27] = system: MCF-10A; assay: as above
Method in brief: as §1

[28] = system: MDA-MB-453; assay: as above
Method in brief: as §1

[29] = system: CAL-148; assay: as above
Method in brief: as §1

[30] = system: HCC1599; assay: as above
Method in brief: as §1

[31] = system: MDA-MB-231; assay: as above
Method in brief: as §1

[32] = system: MDA-MB-436; assay: as above
Method in brief: as §1

[33] = system: HCC1143; assay: as above
Method in brief: as §1

[34] = system: SK-BR-3; assay: as above
Method in brief: as §1

[35] = system: BT-474; assay: as above
Method in brief: as §1

[36] = system: MDA-MB-468; assay: as above
Method in brief: as §1

[37] = system: BT-549; assay: as above
Method in brief: as §1

| Structure (SMILES) | normalised response [1] | normalised response [2] | normalised response [3] | normalised response [4] | normalised response [5] | normalised response [6] | normalised response [7] | normalised response [8] | normalised response [9] | normalised response [10] | normalised response [11] | normalised response [12] | normalised response [13] | normalised response [14] | normalised response [15] | normalised response [16] | normalised response [17] | normalised response [18] | normalised response [19] | normalised response [20] | normalised response [21] | normalised response [22] | normalised response [23] | normalised response [24] | normalised response [25] | normalised response [26] | normalised response [27] | normalised response [28] | normalised response [29] | normalised response [30] | normalised response [31] | normalised response [32] | normalised response [33] | normalised response [34] | normalised response [35] | normalised response [36] | normalised response [37] |
| --- | --- | --- | --- | --- | --- | --- | --- | --- | --- | --- | --- | --- | --- | --- | --- | --- | --- | --- | --- | --- | --- | --- | --- | --- | --- | --- | --- | --- | --- | --- | --- | --- | --- | --- | --- | --- | --- |
| Cc1[nH]c2ccccc2c1CCNCc1ccc(/C=C/C(=O)NO)cc1 [Panobinostat] (10 nM) | 99.7% | 102% | 99.2% | 95.4% | 106% | 94.9% | 99.8% | 89.9% | 110% | 81.9% | 83.1% | 96.4% | 86.3% | 82.3% | 76.1% | 75.8% | 70.6% | 106% | 85.3% | 93.3% | 81.5% | 84% | 88.1% | 90.8% | 73.7% | 77.1% | 99.6% | 50.6% | 83.1% | 94.8% | 88.4% | 83.5% | 88.5% | 65.8% | 94.3% | 84.6% | 99.7% |
| COCC1(CO)C(=O)C2CCN1CC2 (configuration not stated) [Prima-1 Met] (100 nM) | 102% | 109% | 122% | 101% | 104% | 108% | 108% | 95.6% | 82% | 102% | 106% | 114% | 104% | 86.5% | 83.2% | 101% | 145% | 102% | 99.3% | 103% | 102% | 96.1% | 101% | 107% | 99.6% | 99.7% | 107% | 104% | 112% | 119% | 97.5% | 101% | 103% | 98.7% | 96.8% | 95.8% | 106% |
| C=C1C[C@@H]2[C@H](CC[C@]3(C)C(=O)CC[C@@H]23)[C@@]2(C)C=CC(=O)C=C12 [Exemestane] (100 nM) | 102% | 94.5% | 56.9% | 109% | 86.8% | 107% | 116% | 101% | 109% | 108% | 89% | 112% | 117% | 109% | 99.6% | 104% | 50% | 92.8% | 106% | 102% | 94.8% | 106% | 104% | 106% | 111% | 103% | 110% | 106% | 109% | 104% | 107% | 103% | 104% | 106% | 98.6% | 101% | 101% |
| CNC(=O)c1ccc(N2C(=S)N(c3ccc(C#N)c(C(F)(F)F)c3)C(=O)C23CCC3)cc1F [RD162] (100 nM) | 104% | 96.8% | 107% | 103% | 88% | 103% | 105% | 101% | 110% | 107% | 87% | 102% | 113% | 83.4% | 84.3% | 104% | 87.9% | 106% | 103% | 99.7% | 91.3% | 102% | 102% | 103% | 97.3% | 96.4% | 116% | 108% | 101% | 111% | 99.7% | 101% | 101% | 103% | 94.2% | 108% | 97.8% |
| O=C(Nc1cccnc1)N1CCC(Cc2cccc(Oc3ccc(C(F)(F)F)cn3)c2)CC1 [PF-3845] (100 nM) | 104% | 105% | 110% | 107% | 87.9% | 102% | 110% | 97.5% | 107% | 104% | 103% | 113% | 121% | 107% | 121% | 104% | 107% | 99.9% | 102% | 96.7% | 103% | 102% | 103% | 110% | 106% | 104% | 112% | 113% | 113% | 85% | 115% | 103% | 107% | 112% | 103% | 107% | 104% |
| Cc1cc(Nc2cc(CN3CCOCC3)c3nc(C)c(Cc4ccc(Cl)cc4F)n3n2)n[nH]1 [Gandotinib] (100 nM) | 89% | 109% | 102% | 99.2% | 72% | 105% | 98.9% | 95% | 84.8% | 102% | 103% | 112% | 103% | 100% | 108% | 100% | 119% | 90% | 96.1% | 110% | 104% | 101% | 96.3% | 93.4% | 94.3% | 102% | 105% | 104% | 105% | 85.9% | 98.8% | 105% | 109% | 95.6% | 99.9% | 97.9% | 94.4% |
